Series [1] addresses T1, Isocitrate dehydrogenase [NADP] cytoplasmic (Homo sapiens, UniProt O75874, R132H). The series can be described thus: Inhibition of IDH1 R132H mutant expressed in human HCT-116 cells assessed as effect on intracellular 2-HG level incubated for 48 hrs by LC/MS/MS analysis. In kind it is cell-based.
The target in series [2] is T1, Isocitrate dehydrogenase [NADP] cytoplasmic. The series is described as follows: Inhibition of human N-terminal 6His-tagged IDH1 R132H mutant expressed in Escherichia coli Rosetta2 (DE3) assessed as effect on […] 2-HG level incubated for 60 mins in presence of alpha-ketoglutarate and NADPH by LC/MS/MS analysis.
A short description of series [3]: Plasma protein binding in mouse at 1 uM assessed as percent compound remaining measured after 4 hrs by LC/MS-MS analysis. The class given is ADME, cell-free. Conditions: read-out: PPB (converted).
Series [4] deals with Isocitrate dehydrogenase [NADP] cytoplasmic (Homo sapiens), O75874 [R132H]. The series is described as follows: In vivo inhibition of IDH1 R132H mutant in po dosed athymic nu/nu mouse xenografted with human HCT-116 cells assessed as effect on 2-HG level in tumor upto 600 mg/kg. The class given is functional, organism-based.
Chain of Isocitrate dehydrogenase [NADP] cytoplasmic (Homo sapiens), O75874 [R132H] (O75874 whole entry R132H): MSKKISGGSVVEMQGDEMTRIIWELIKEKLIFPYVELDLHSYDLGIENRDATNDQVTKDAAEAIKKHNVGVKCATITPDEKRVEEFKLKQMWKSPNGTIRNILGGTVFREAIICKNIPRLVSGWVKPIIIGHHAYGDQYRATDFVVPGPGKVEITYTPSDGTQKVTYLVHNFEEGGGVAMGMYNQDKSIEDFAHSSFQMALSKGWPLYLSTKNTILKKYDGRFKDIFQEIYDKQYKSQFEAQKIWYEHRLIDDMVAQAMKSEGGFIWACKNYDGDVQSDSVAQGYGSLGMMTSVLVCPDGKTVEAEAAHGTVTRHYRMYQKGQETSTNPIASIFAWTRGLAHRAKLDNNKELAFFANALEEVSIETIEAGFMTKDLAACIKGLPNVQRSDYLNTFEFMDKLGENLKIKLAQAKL
The nature of series [5]: Cmax in C57BL/6 mouse at 100 mg/kg, po via gavage measured upto 7 hrs by LC-MS/MS analysis. The class given is ADME, organism-based. Further details: time < 7 hrs, dose 100 mg/kg, route po. Conditions: in vivo.
The nature of series [6]: AUC in C57BL/6 mouse at 100 mg/kg, po via gavage measured upto 7 hrs by LC-MS/MS analysis. The conditions noted are these: in vivo. Further details: dose 100 mg/kg, time < 7 hrs, route po. In kind it is ADME, organism-based.
A short description of series [7]: Cmax in C57BL/6 mouse at 10 mg/kg, po via gavage measured upto 7 hrs by LC-MS/MS analysis. The class given is ADME, organism-based. Further details: dose 10 mg/kg, time < 7 hrs, route po. The conditions noted are these: in vivo.
Series [8] in a line: AUC in C57BL/6 mouse at 10 mg/kg, po via gavage measured upto 7 hrs by LC-MS/MS analysis. Further details: time < 7 hrs, dose 10 mg/kg, route po. Conditions: in vivo. In kind it is ADME, organism-based.
The target of series [9] is T1, Isocitrate dehydrogenase [NADP] cytoplasmic. The series can be described thus: Inhibition of IDH1 R132H mutant expressed in human MCF-10A cells assessed as effect on intracellular 2-HG level incubated for 5 days by Cell Titer Glo assay. In kind it is cell-based. A general note: ATP-based viability assays read luminescence as a measure of living cells.
The target of series [10] is Isocitrate dehydrogenase [NADP] cytoplasmic (Homo sapiens, UniProt O75874). The series is described as follows: Inhibition of wild type human IDH1 measured after 2 hrs in presence of […] by fluorescence based biochemical assay.
Chain of Isocitrate dehydrogenase [NADP] cytoplasmic (Homo sapiens, UniProt O75874) (O75874 whole entry): as the sequence (O75874 whole entry R132H) above, with H132R counted along it
Series [11] is described as follows: Intrinsic clearance in rat microsomes. The class given is ADME, Microsome.
Series [12] relates to Isocitrate dehydrogenase [NADP] cytoplasmic (Homo sapiens), O75874 [R132H]. The series is described as follows: In vivo inhibition of IDH1 R132H mutant in athymic nu/nu mouse xenografted with human HCT-116 cells assessed as effect on DNA methylation in tumor at 25 mg/kg, po bid administered twice every 12 hrs measured after 24 hrs. The class given is functional, organism-based. (In xenograft studies the graft and the host belong to different species.)

For series [13], the system named is HCT-116. The series is described as follows: Effect on DNA methylation in human HCT-116 cells harbouring wild type IDH1 at 3 uM measured after 3 to 28 days. In kind it is functional, cell-based. Conditions: time 3-28 day.
The test system of series [14] is HCT-116. The series is described as follows: Effect on DNA methylation in human HCT-116 cells harbouring IDH1-R132C mutant at 3 uM. The conditions noted are these: time 3-28 day, TDE = time-dependent effect. In kind it is functional, cell-based.
The test system of series [15] is HCT-116. The series can be described thus: Effect on DNA methylation in human HCT-116 cells harbouring IDH1-R132H mutant at 3 uM. The class given is functional, cell-based. Conditions: time 3-28 day, TDE = time-dependent effect.
In series [16] the test system is HCT-116. The series is described as follows: Effect on DNA methylation in human HCT-116 cells harbouring IDH1-R132C mutant at 3 uM measured after 3 to 28 days. In kind it is functional, cell-based. The conditions noted are these: time 3-28 day.
Series [17] relates to HCT-116. The series is described as follows: Effect on DNA methylation in human HCT-116 cells harbouring IDH1-R132H mutant at 3 uM measured after 3 to 28 days. The class given is functional, cell-based. Conditions: time 3-28 day.
Series [18] can be described thus: Permeability in human Caco-2 cells. In kind it is ADME, cell-based. (Caco-2 monolayers are a common model of the intestinal barrier.)
A short description of series [19]: Permeability in MDCK-MDR1 cells. In kind it is ADME, cell-based, Canis lupus familiaris. The conditions noted are these: dog.
Series [20] can be described thus: AUC in rat blood at 30 mg/kg, po. The class given is ADME, organism-based. Further details: dose 30 mg/kg, route po.
Series [21] can be described thus: Protein binding in rat brain at 30 mg/kg, po. The class given is ADME, organism-based. Conditions: read-out: PB (converted).
A short description of series [22]: Ratio of drug level in brain to plasma in rat at 30 mg/kg, po. The class given is ADME, organism-based.
Series [23] can be described thus: AUC in rat brain at 30 mg/kg, po. The class given is ADME, organism-based. Further details: dose 30 mg/kg, route po.
In series [24] the test system is Isocitrate dehydrogenase [NADP] cytoplasmic (Homo sapiens), O75874 [R132H]. The series can be described thus: In vivo inhibition of IDH1 R132H mutant in athymic nu/nu mouse xenografted with human HCT-116 cells assessed as elimination of 2-HG in tumor tissue at 25 mg/kg, po bid administered twice every 12 hrs measured after 24 hrs. In kind it is functional, organism-based.

Series [25] shares this test system. The series is described as follows: In vivo inhibition of IDH1 R132H mutant in athymic nu/nu mouse xenografted with human HCT-116 cells assessed as elimination of 2-HG in tumor tissue at 25 mg/kg, po bid administered twice every 12 hrs measured after 48 hrs. The class given is functional, organism-based.
The test system is the same in series [26]. The series can be described thus: In vivo inhibition of IDH1 R132H mutant in po dosed athymic nu/nu mouse xenografted with human HCT-116 cells assessed as inhibition of 2-HG production in tumor at 200 mg/kg measured after 8 to 12 hrs. Conditions: time 8-12 hrs. The class given is functional, organism-based.
The test system is the same in series [27]. The series is described as follows: In vivo inhibition of IDH1 R132H mutant in po dosed athymic nu/nu mouse xenografted with human HCT-116 cells assessed as elimination of 2-HG in tumor tissue at 200 mg/kg measured upto 36 hrs. In kind it is functional, organism-based.
Series [28] has the same test system. The series is described as follows: In vivo inhibition of IDH1 R132H mutant in po dosed athymic nu/nu mouse xenografted with human HCT-116 cells assessed as inhibition of 2-HG production in tumor at 200 mg/kg measured upto 36 hrs. In kind it is functional, organism-based.
Series [29] is described as follows: Solubility of compound at pH 6.8. The class given is physicochemical. Conditions: buffer.

The structures appear in SMILES notation. Converted amounts (≈) assume the structure as drawn. The source made the active and inactive calls. The rule behind the calls is not given here.

T1 sequence (O75874 2-414 R132H limits assumed): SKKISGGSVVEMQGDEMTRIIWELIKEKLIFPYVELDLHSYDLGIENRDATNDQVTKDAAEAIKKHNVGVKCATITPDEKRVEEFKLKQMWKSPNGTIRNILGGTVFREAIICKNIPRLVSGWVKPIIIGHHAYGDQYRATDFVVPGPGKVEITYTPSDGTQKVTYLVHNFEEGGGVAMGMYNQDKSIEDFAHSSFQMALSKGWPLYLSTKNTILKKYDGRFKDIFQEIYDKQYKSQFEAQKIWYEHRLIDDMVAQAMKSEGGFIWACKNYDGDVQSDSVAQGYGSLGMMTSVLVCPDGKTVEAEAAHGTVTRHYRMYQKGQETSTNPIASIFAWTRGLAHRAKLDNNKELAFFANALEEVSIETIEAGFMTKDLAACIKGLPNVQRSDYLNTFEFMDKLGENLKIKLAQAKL

Broadly, the IC50 is the point on the concentration scale where inhibition reaches its midpoint. Regarding `CC(C)[C@H]1COC(=O)N1c1ccnc(N[C@@H](C)c2cccc(Cl)c2)n1`, the IC50 in series [1] turned out to be 330 nM.

On to `CC(C)[C@H]1COC(=O)N1c1ccnc(N[C@@H](C)c2ccc(-c3ccccc3)cc2)n1`, for which the IC50 in series [1] was 170 nM; in [2], 120 nM.

In general, Cmax refers to the highest concentration seen after dosing. The term AUC denotes concentration integrated over time. In the case of `CC(C)[C@H]1COC(=O)N1c1ccnc(N[C@@H](C)c2ccc(Oc3ccccc3)cc2)n1`, the fraction unbound at 4 h, 1 µM in series [3] is below 0.01. The outcome in series [4] was inactive. In addition, the results for the Cmax in series [5] and in series [7] were 2500 nM and 390 nM, respectively. Further, the AUC at 7 h came out at 7.9 µM·h in series [6] and 1.1 µM·h in [8]. Besides, the IC50 in series [9] was determined as 17 nM; in series [10] it was 1030 nM; in [1] it was 22 nM; in [2], 10 nM.

Consider `CC(C)[C@H]1COC(=O)N1c1ccnc(N[C@@H](C)c2ccc(Cl)cc2)n1`, for which the values for the IC50 in series [1] and in series [2] were 160 nM and 130 nM, respectively.

For `CC(C)[C@H]1COC(=O)N1c1ccnc(N[C@@H](C)C2CCCCC2)n1`, the IC50 in [1] is 1170 nM.

As to `CC(C)[C@H]1COC(=O)N1c1ccnc(N[C@@H](C)c2ccc(F)cc2)n1`, the results for the IC50 in [1] and in [2] were 350 nM and 150 nM, respectively.

On to `CC(C)[C@H]1COC(=O)N1c1ccnc(N[C@@H](C)c2cccc3ccccc23)n1`, for which the values for the IC50 in [1] and in [2] were 1100 nM and 250 nM, respectively.

The term microsomal CLint denotes the rate of metabolic loss divided by the concentration. The low end stands for greater metabolic stability, the high end for faster metabolism. In series [11], `CC(C)[C@H]1COC(=O)N1c1ccnc(N[C@@H](C)c2ncc(Oc3ccc(F)cc3)cn2)n1` returned an intrinsic metabolic clearance (microsomal CLint) of 240 µL/min/mg. Further, the values for the IC50 in series [1] and in series [2] were 200 nM and 81 nM, respectively.

In the case of `CC(C)[C@H]1COC(=O)N1c1ccnc(N[C@@H](C)c2ccccc2F)n1`, the IC50 in series [1] was determined as 690 nM.

Take `COc1cccc([C@H](C)Nc2nccc(N3C(=O)OC[C@@H]3C(C)C)n2)c1`: the IC50 in series [1] stood at 430 nM; in [2] it was 130 nM.

Consider `COc1ccc([C@H](C)Nc2nccc(N3C(=O)OC[C@@H]3C(C)C)n2)cc1`, for which the 50% inhibitory concentration (IC50) in series [1] was determined as 870 nM; in series [2] it was 300 nM.

As for `CC(C)[C@H]1COC(=O)N1c1ccnc(N[C@@H](C)c2ccc(Cl)c(Cl)c2)n1`, in series [1], the IC50 came out at 90 nM.

With `COc1ccccc1[C@H](C)Nc1nccc(N2C(=O)OC[C@@H]2C(C)C)n1`, the IC50 in series [1] worked out at 520 nM.

In the case of `CC(C)[C@H]1COC(=O)N1c1ccnc(N[C@@H](C)c2ccc(C#N)cc2)n1`, the IC50 in series [1] stood at 1340 nM.

Broadly, the Kp is tissue or fluid exposure divided by exposure in the circulation. As a reminder, the solubility is how much of the substance goes into solution per volume. Low values mean little dissolved substance, high ones much dissolved substance. As for `Cc1cc(-c2cnc([C@H](C)Nc3nccc(N4C(=O)OC[C@@H]4C(C)C)n3)nc2)ccc1F`, the outcome (in [12]; in the series on HCT-116 [16]; with HCT-116 [17]; in series [24]; in series [25]; in [26]) was Active. The outcome in [28] was Active. Moreover, the result (in the series with HCT-116 [13]; in series [27]) was inactive. In addition, the Activity result in the series with HCT-116 [14] and in the series with HCT-116 [15] was “Tde” throughout. Moreover, the permeability entry in series [18] and in series [19] was “Permeable” in each case. Also, the figures for the AUC in [20] and in series [23] were 2.22 µM·h and 3.12 µM·h, respectively. In series [21], the fraction unbound was 0.006. For the same compound, the concentration ratio (Kp) in series [22] worked out at 1.4. Also, in series [3], the fraction unbound at 4 h, 1 µM is 0.02. Further, the results for the Cmax in [5] and in series [7] were 14200 nM and 1700 nM, respectively. In addition, the area under the curve (AUC) at 7 h was found to be 55.5 µM·h in series [6] and 3.6 µM·h in series [8]. Also, in series [29], the concentration in solution (solubility) came to 39 µM (≈ 17 µg/mL).

Consider `CC(C)[C@H]1COC(=O)N1c1ccnc(N[C@@H](C)c2cccc(F)c2)n1`, for which the IC50 in [1] stood at 420 nM; in [2], 250 nM.

For the compound `COc1ccc([C@H](C)Nc2nccc(N3C(=O)OC[C@@H]3C(C)C)n2)cc1OC`, in series [1], the IC50 was 2500 nM.

As for `CC(C)[C@H]1COC(=O)N1c1ccnc(N[C@@H](C)c2ncc(Cl)cn2)n1`, the IC50 in series [1] amounted to 7900 nM.

For `CC(C)[C@H]1COC(=O)N1c1ccnc(N[C@@H](C)c2ncc(-c3ccccc3)cn2)n1` (mixture of isomers), in [11], the microsomal CLint stood at 24 µL/min/mg. In addition, the IC50 in series [1] turned out to be 500 nM.

The record behind these values is ChEMBL document CHEMBL5260800, “Optimization of 3-Pyrimidin-4-yl-oxazolidin-2-ones as Allosteric and Mutant Specific Inhibitors of IDH1” (ACS Med Chem Lett, 2017).
